How the values were obtained:
Details in all cases: incubation time: 72 h
[1] = system: MDA-MB-436; assay: drug sensitivity score (DSS), CellTox Green (DSS (AUC-based score)); higher = stronger drug effect (viability inhibition or cytotoxicity); extreme values may be limits of the assay
Summary of the method: (§1)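 Breast cancer cell lines, seeded as 20 µl suspension, were incubated 72 h with compound in 384-well plates at 5 concentrations in 10-fold steps over a 10,000-fold range set for each compound. Fluorescence from CellTox Green was read at 485/520 nm before CellTiter-Glo luminescence, which was read after 10 min at room temperature. Every plate was normalised to 0.1 % DMSO and a positive kill control, and the drug sensitivity score was taken from the area under the fitted dose-response curve.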

[2] = system: CAL-120; assay: as above
Summary of the method: as §1

[3] = system: HCC1143; assay: as above
Summary of the method: as §1

[4] = system: Hs578T; assay: as above
Summary of the method: as §1

[5] = system: MDA-MB-468; assay: as above
Summary of the method: as §1

[6] = system: MFM-223; assay: as above
Summary of the method: as §1

[7] = system: HDQ-P1; assay: as above
Summary of the method: as §1

[8] = system: CAL-85-1; assay: as above
Summary of the method: as §1

[9] = system: BT-549; assay: as above
Summary of the method: as §1

[10] = system: DU-4475; assay: as above
Summary of the method: as §1

[11] = system: HCC1937; assay: as above
Summary of the method: as §1

[12] = system: MDA-MB-453; assay: as above
Summary of the method: as §1

[13] = system: MDA-MB-231; assay: as above
Summary of the method: as §1

[14] = system: MCF-10A; assay: as above
Summary of the method: as §1

[15] = system: CAL-51; assay: as above
Summary of the method: as §1

[16] = system: MDA-MB-436; assay: drug sensitivity score (DSS), CellTiter-Blue viability (DSS (AUC-based score)); higher = stronger viability inhibition; extreme values may be limits of the assay
Description: (§2)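 DSRT with the CellTiter-Blue (resazurin reduction) viability readout, fluorescence 560/590 nm, 72 h incubation. Plates were normalised to DMSO and benzethonium chloride controls. DSS is computed from the area under the fitted dose-response curve (5 or 9 concentrations).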

[17] = system: CAL-120; assay: as above
Description: as §2

[18] = system: CAL-148; assay: as above
Description: as §2

[19] = system: Hs578T; assay: as above
Description: as §2

[20] = system: CAL-85-1; assay: as above
Description: as §2

[21] = system: BT-474; assay: as above
Description: as §2

[22] = system: HCC1599; assay: as above
Description: as §2

[23] = system: DU-4475; assay: as above
Description: as §2

[24] = system: HCC1937; assay: as above
Description: as §2

[25] = system: SK-BR-3; assay: as above
Description: as §2

[26] = system: CAL-51; assay: as above
Description: as §2

SMILES: CNCc1ccc(-c2[nH]c3cc(F)cc4c3c2CCNC4=O)cc1 [Rucaparib]
- drug sensitivity score [1]: 0
- drug sensitivity score [2]: 0
- drug sensitivity score [3]: 0
- drug sensitivity score [4]: 1.33
- drug sensitivity score [5]: 10.6
- drug sensitivity score [6]: 0
- drug sensitivity score [7]: 0
- drug sensitivity score [8]: 0
- drug sensitivity score [9]: 0
- drug sensitivity score [10]: 0
- drug sensitivity score [11]: 0
- drug sensitivity score [12]: 0
- drug sensitivity score [13]: 0
- drug sensitivity score [14]: 0
- drug sensitivity score [15]: 0
- drug sensitivity score [16]: 0
- drug sensitivity score [17]: 0
- drug sensitivity score [18]: 1.96
- drug sensitivity score [19]: 0
- drug sensitivity score [20]: 0
- drug sensitivity score [21]: 0
- drug sensitivity score [22]: 0
- drug sensitivity score [23]: 0
- drug sensitivity score [24]: 6.08
- drug sensitivity score [25]: 0
- drug sensitivity score [26]: 1.41

From the supplement of paper PMC4862054
